Reference: patent US10017546B2 (KOREA ADVANCED INSTITUTE OF SCIENCE AND TECHNOLOGY, priority 2015, dated 2018)
Like-named read-outs stand apart in the source and are kept apart here.

Key:
[1] = target: Rhizobium etli rhizavidin variant RAWH (RAWH-His6), E115W/S23H (Rhizobium etli, UniProt Q8KKW2, E135W/S43H); experiment: Kd measurement by competition binding for [^3H]biotin against streptavidin, RAWH
Protocol: (§1) Mixtures were incubated at 37° C. for 20 h to reach equilibration. […] After 1 h incubation at room temperature, the beads were cleared by centrifugation at 13,000 rpm for 1 min. […] Samples were heated to 95° C. for 30 min, and then counted in a liquid scintillation counter. The Kd ratios between competing avidin proteins were calculated with Matlab (Mathworks) using the foregoing formula (Qureshi, M. H. & Wong, S. L. Protein Expr. Purif. 25, 409-415 (2002)).

[2] = target: Rhizobium etli rhizavidin variant monodin (MA), monomeric, A67D/G71K/A82N/G84Q/S101R/A105K + S23H/Q46E/E115W, SEQ ID NO: 3 (Rhizobium etli, UniProt Q8KKW2, A102N/A125K/A87D/E135W/G104Q/G91K/Q66E/S121R/S43H); experiment: [^3H]biotin off-rate assay, monodin; format: binding; conditions: free [^3H]biotin, excess cold biotin, 37° C.
Protocol: [^3H]Biotin Off-Rate Assay
At time-points taken over 5 h at 37° C., 150 μL of aliquots were removed, and added to 600 μL of 0.2 M ZnSO4 (chilled with ice), followed by addition of 600 μL of 0.2 M NaOH. […] Dissociation rates were deduced as discussed above.

[3] = target: Rhizobium etli rhizavidin variant monodin (MA, MA-His6), monomeric, A67D/G71K/A82N/G84Q/S101R/A105K + S23H/Q46E/E115W, SEQ ID NO: 3 (Rhizobium etli, UniProt Q8KKW2, A102N/A125K/A87D/E135W/G104Q/G91K/Q66E/S121R/S43H); experiment: Kd measurement by competition binding for [^3H]biotin against RAWH, monodin
Protocol: as §1

biotin-GFP = biotin-GFP (Aequorea victoria, UniProt P42212, A206V/E111V/F223Y/F64L/F99S/I128T/I167V/I171V/K158E/K166T/K26E/L221H/M153T/N105K/N149D/N164E/Q80R/S205T/S30R/S65T/T225N/V163A/Y145F/Y39I); conditions: Biotin-GFP
Protocol: After incubation at the indicated temperature (23° C., 37° C., or 45° C.) for varying time points (between 0 to 10 h), protein-conjugate mixtures were loaded onto a 15% native polyacrylamide gel. […] Data as ln(fraction bound) versus time and fitting the data to a straight line by linear regression.

biotin-DNA = experiment: Gel-based off-rate measurement against biotin-DNA-fluorescein; format: binding; conditions: 10 h
HeLa cells = experiment: Clustering and internalization of biotinylated cell-surface proteins; format: cell-based; conditions: Cy5-labeled avidin proteins, 37° C.
Protocol: Following biotinylation, the cells were washed twice with cold PBS-CM, treated with 100 mM glycine in PBS-CM for blocking, and washed again twice with cold PBS. […] Unbound avidin proteins were removed, and media was replaced with pre-warmed DMEM (37° C.). Cells were incubated for 5, 10, or 30 m at 37° C. Cells were washed, and fixed with 4% formaldehyde in PBS for confocal imaging (ZEISS, LSM510 META). To visualize endosome or lysozome-specific proteins, cells were fixed, permeabilized, and incubated with a primary antibody: anti-Rab11 (a GTPase of recycling endosome, Abcham) or anti-LAM P1 (Lysosomal-associated membrane protein 1, Abcham). Afterward, cells were incubated with a fluorescent secondary antibody (goat anti-rabbit 555, Abcham), and images were acquired with a confocal microscopy (ZEISS, LSM510 META).

Rhizobium etli rhizavidin variant RAWH (RAWH-His6), E115W/S23H, sequence (Q8KKW2 entry or part of it S43H/E135W): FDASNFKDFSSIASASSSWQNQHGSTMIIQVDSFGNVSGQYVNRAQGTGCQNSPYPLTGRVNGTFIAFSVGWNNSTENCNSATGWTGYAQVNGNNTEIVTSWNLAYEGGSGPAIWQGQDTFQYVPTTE
Rhizobium etli rhizavidin variant monodin (MA, MA-His6), monomeric, A67D/G71K/A82N/G84Q/S101R/A105K + S23H/Q46E/E115W, SEQ ID NO: 3, sequence (Q8KKW2 entry or part of it S43H/Q66E/A87D/G91K/A102N/G104Q/S121R/A125K/E135W): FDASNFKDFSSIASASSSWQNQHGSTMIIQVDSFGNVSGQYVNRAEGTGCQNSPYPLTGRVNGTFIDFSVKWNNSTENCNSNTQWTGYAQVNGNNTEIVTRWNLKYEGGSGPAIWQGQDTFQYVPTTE
Rhizobium etli rhizavidin variant monodin (MA), monomeric, A67D/G71K/A82N/G84Q/S101R/A105K + S23H/Q46E/E115W, SEQ ID NO: 3, sequence (Q8KKW2 entry or part of it S43H/Q66E/A87D/G91K/A102N/G104Q/S121R/A125K/E135W): as above

Compound	percentage of dissociated biotin conjugate after 10 h incubation with excess biotin (biotin-GFP; 23° C.) [% for 10 h*]	percentage of dissociated biotin conjugate after 10 h incubation with excess biotin (biotin-GFP; 37° C.) [% for 10 h*]	percentage of dissociated biotin conjugate after 10 h incubation with excess biotin (biotin-DNA; 23° C.) [% for 10 h*]	percentage of dissociated biotin conjugate after 10 h incubation with excess biotin (biotin-DNA; 37° C.) [% for 10 h*]	other results
O=C(O)CCCC[C@@H]1SC[C@@H]2NC(=O)N[C@@H]21 [[^3H]biotin] [listing 1 of 2 here]					Kd [1]: 0.0069 nM
O=C(O)CCCC[C@@H]1SC[C@@H]2NC(=O)N[C@@H]21 [[^3H]biotin] [listing 2 of 2 here]					off-rate [2]: 1.2±0.3×10^−5 s^−1
O=C(O)CCCC[C@@H]1SC[C@@H]2NC(=O)N[C@@H]21 [biotin]					Kd [3]: 0.031 ± 0.01 nM
Neutravidin (NA): tetrameric neutravidin (Pierce) [reference compound]	6.8 ± 1.6	16 ± 3.8	11 ± 4.4	20 ± 0.2	percentage of dissociated biotin conjugate after 10 h incubation with excess biotin (biotin-GFP; 45° C.): 32 ± 5.0% for 10 h*; percentage of dissociated biotin conjugate after 10 h incubation with excess biotin (biotin-DNA; 37° C., listed as neutravidin): about 20%
Streptavidin (STA): tetrameric streptavidin, purchased from Abcam [reference compound]	4.7 ± 0.3	22 ± 4.4	6.8 ± 1.8	17 ± 1	Dissociation rate (biotin-GFP; 45° C., excess biotin): 1.9 ± 0.2 × 10^−5 s^−1; percentage of dissociated biotin conjugate after 10 h incubation with excess biotin (biotin-DNA; 37° C., listed as streptavidin): about 20%; incubation time after which avidin protein was internalized (HeLa cells): 10 min
